In patent publication US20060289019A1, “Information method and system for generating data for optimizing a medical treatment, and equipment used in this system” (IPPM HOLDING SA, priority 2005, published 2006):

What was measured:
[1] = test system: clozapine N-demethylation; details: cited from earlier work
[2] = male, human, in vivo
Experimental: A patient suffering from schizo-affective disorder and from dual personality disorder reacts correctly to clozapine (clozaril, 600 mg/day, blood concentration: 502 ng/mL). They are also treated with lithium (eskalith, 900 mg/day). […] After 11 days the patient had to be admitted to the emergency department because they had too high a blood level of clozapine (2112 ng/mL).
Thus, the DEM will transfer the pharmacogenetic data from the DGSB. It will find, according to the pharmacokinetic data and studies on clozapine-fluvoxamine interaction, an appropriate function and the corresponding statistical values. […] The dosage of fluvoxamine is sought to be maintained constant. Still with reference to FIG. 3, the straight line which is of interest therefore, is that for which the blood level is 5 μM. […] The equation of this straight line (according to data taken from a publication) is y=3.7×/1.8 ? x=1.8y/3.7. Therefore if y=502 ng/mL then x=502*1.8/3.7=244 ng/mL. This means that the current dosage would need to be reduced by at least a half in order to avoid too great an interaction between the two products and especially to prevent a worrying blood level of clozapine in the blood. This optimization reasoning will be carried out by the OS as a function of the data which are sent to it by the DEM.

| clozapine blood level x calculated from straight line x=1.8y/3.7 for y=502 ng/mL [2] [ng/mL] | SMILES | clozapine N-demethylation inhibitor strength [1] |
| --- | --- | --- |
|  | COCCCC/C(=N\OCCN)c1ccc(C(F)(F)F)cc1 [fluvoxamine] | strong |
| 244 | CN1CCN(C2=Nc3cc(Cl)ccc3Nc3ccccc32)CC1 [clozapine] |  |
